Results reported in patent publication US5430055A, “Inhibitor of squalene synthase” (Pfizer Inc., priority 1994, dated 1995).

Key:
[1] = tested on: Cryptococcus bhutanensis, Sensitive Strain (against zaragozic Acid A); assay: Antifungal bioassay, zone of inhibition, sensitive strain (against zaragozic acid A); type: cell-based; details: yeast nitrogen based medium, 28° C., 2 to 3 days
Method: (§1) The antifungal activity of the compound I was determined with a bioassay such as Cryptococcus bhutanensis FD 23971. A ten-day-old slant of C. bhutanensis was washed with 10 ml of sterile water, and 300 μl of the suspension was mixed with an assay medium consisting of 0.67% of yeast nitrogen based medium (DIFCO) and 0.5% of glucose. 150 ml of the warm medium was poured onto a sterile, polystyrene bioassay plate (245×245×20 mm) and was left to solidify. The solid medium was bored into well-separated wells with a size #2 cork bore, and 25 μl of whole broth or extracted broth was spotted into the wells. The plates were incubated at 28° C. for 2 to 3 days and the zone of inhibition was measured.
(§2) The zones of inhibition against Cryptococcus bhutanensis on a yeast nitrogen based medium are as follows: […]

[2] = tested on: Cryptococcus bhutanensis, Resistant Strain; assay: Antifungal bioassay, zone of inhibition, resistant strain; type: cell-based; details: yeast nitrogen based medium, 28° C., 2 to 3 days
Method: as §1, §2

squalene synthase = target: T1, squalene synthase (Homo sapiens, UniProt P37268); assay: Squalene Synthase Inhibition Assay; type: biochemical; details: microsomal protein, 30 minutes at 37° C., pH 7.4
T1 sequence (P37268 1-417): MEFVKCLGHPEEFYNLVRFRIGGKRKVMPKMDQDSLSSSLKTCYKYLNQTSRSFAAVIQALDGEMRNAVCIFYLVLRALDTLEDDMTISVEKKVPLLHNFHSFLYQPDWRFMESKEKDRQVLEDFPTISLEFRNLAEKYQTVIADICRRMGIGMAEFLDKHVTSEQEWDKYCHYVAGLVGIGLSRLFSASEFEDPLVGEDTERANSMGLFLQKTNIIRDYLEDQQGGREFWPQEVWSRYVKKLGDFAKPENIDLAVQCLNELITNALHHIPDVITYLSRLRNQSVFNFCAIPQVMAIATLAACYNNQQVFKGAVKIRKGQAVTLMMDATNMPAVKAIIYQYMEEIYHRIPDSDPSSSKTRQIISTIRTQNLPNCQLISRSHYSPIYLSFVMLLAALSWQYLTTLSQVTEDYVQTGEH
Method: The squalene synthase inhibition assay was conducted in a final volume of 75 μl. The reaction is initiated by addition of 25 μl of the diluted and deoxygenated microsomal suspension to a mixture of 47 μl of the deoxygenated SQS substrate/cofactor solution and 3 μl of the deoxygenated test compound solution as set out in Table 6.
Glucose-6-phosphate 0.95 U
The microsomal suspensions were diluted to a microsomal protein concentration of 1 mg/ml and deoxygenated by repetitive cycles of evacuation and airation with nitrogen. […] Control incubations received 3 μl of deoxygenated dimethyl sulfoxide and enzyme blanks received 25 μl of deoxygenated PMED buffer (50 mM K2 PO4 (pH=7.4), 5 mM MgCl2, 1 mM EDTA, 5 mM dithiothreitol). Assay tubes were immediately flushed with nitrogen and capped, and the solution was vortexed gently. Following 30 minutes of incubation at 37° C., reactions were terminated by addition of 40 μl of 10M sodium hydroxide. […] The region of the chromatogram from 1 cm below the squalene band (visualized with iodine vapors) to the top of the chromatogram was removed and counted in a liquid scintillation counter using Aquasol-2 liquid scintillation fluid. […]
SQS activity (overall reaction) is calculated as pmoles of [3H] squalene formed from [1-3H] […]

ras farnesyltransferase = target: T2, ras farnesyltransferase (Rattus norvegicus, UniProt Q02293+Q04631); assay: ras Farnesyltransferase inhibition assay; type: biochemical; details: rat brain cytosol, H-ras 4 μM, 30 minutes at 37° C., pH 7.5
T2 construct: diluted rat brain cytosol; from tissue; host or cells: rat brain cytosol
Method: The ras farnesyltransferase inhibition assay was conducted in a final volume of 25 μL. The reaction is initiated by addition of 10 μpL of the diluted rat brain cytosol to a mixture of 15 μL of the ras farnesyltransferase substrate/cofactor solution and 0.3 μL of test compound solution as set out in Table 7.
The rat brain cytosols were diluted to a protein concentration of 3.0 mg/mL. Test compound solutions were prepared in dimethyl sulfoxide at concentrations of 25 mM (final assay concentration 300 μM). Control incubations received 0.3 μL of dimethyl sulfoxide and enzyme blanks received 10 μL rat brain homogenization buffer (50 mM tris HCl (pH=7.5), 5 mM dithiothreitol, 0.2M KCl, 20 μM ZnCl2). After a 30 minute incubation at 37° C., the reaction was terminated by addition of 200 μL of 10% (v/v) HCl in EtOH. After an additional 15 minute incubation at 37° C., 300 μl absolute EtOH were added and the entire sample was applied to a filtration well of a Packard Unifilter-GF/B 96-well plate under vacuum. After complete sample addition, the filter well was washed four times with 500 μl each of absolute ethanol and allowed to dry. The bottom of the Unifilter-GF/B plate was then sealed, 50 μl Microscint-20 liquid scintillation fluid were added to each well and the plate was heat-sealed and then counted in a Packard Top-Count liquid scintillation counter.
ras Farnesyltransferase Assay […]

[3] = tested on: ras protein farnesylation; details: background statement; cited from earlier work

SMILES	zone of inhibition [1] [mm]	zone of inhibition [2] [mm]	IC50 (squalene synthase) [µM]	IC50 (ras farnesyltransferase) [µM]	inhibition of farnesylation of ras protein [3]
C/C=C/CCCCC[C@@H]1C=C2[C@]3(CC(=O)O)CC4=C(C(=O)OC4=O)[C@@H]4[C@H]1C[C@H](C(=O)CC/C=C/C)O[C@]24OC3=O [CP-263,114]	42	45			
C/C=C/CCCCC[C@@H]1C=C2[C@]3(CC(=O)O)CC4=C(C(=O)OC4=O)[C@H]([C@H]1C[C@@H](O)C(=O)CC/C=C/C)[C@@]2(O)OC3=O [Fraction 5 compound]	15	22	48	6	
C=C(CC[C@]12O[C@H](C(=O)O)[C@@](O)(C(=O)O)[C@](C(=O)O)(O1)[C@H](OC(=O)/C=C/[C@@H](C)C[C@@H](C)CC)[C@H]2O)[C@@H](OC(C)=O)[C@H](C)Cc1ccccc1 [Zaragozic acid A, reference compound]				3	inhibit farnesylation of ras protein
